We go through two compounds from patent US20180206489A1, “REPELLENT EFFECTIVE AGAINST ANOPHELES GAMBIAE” (Simon Fraser University, priority 2014, published 2018).

Test [1] has as its system Anopheles gambiae. The test can be described thus: Electroantennogram (EAG) screening assay on female antennae. How it is done: EAG recordings were obtained using a Combi Probe (Syntech, Kirchzarten, Germany) fitted with glass capillary Ag/AgCl electrodes, filled with insect Ringer solution. Fine, tapered capillaries were prepared on a Gravipull-2 capillary puller (Kation Scientific, Minneapolis, USA). Data were recorded with an IDAC-4 data acquisition system (Syntech), interfaced with a computer that had the software EAGpro (version 1.1, Syntech). Stimuli were dissolved in hexane […] and applied to small filter papers (Whatman No. 1) (10 μL). This gave doses on the filter paper of 1 μg, 10 μg and 100 μg. After evaporation of the solvent, the filter papers were placed in a Pasteur pipette. Pipettes were attached to a CS-55 stimulus controller ([…]) that delivered a pulse of air (30 mL/s) through the pipette and into a metal stimulus delivery tube (Ø 0.95 cm×18 cm) that dispensed a continuous airflow (25 mL/s) and was positioned approximately 2 cm from the mosquito antenna so that the airflow contacted the entire antenna. The duration of the pulse was 0.7 s. Screening took place on A. gambiae females 4-7 days post-eclosion. Females were starved (sugar water replaced with distilled water in the colony cage) for 24 hours before trials to ensure a standard hunger level in test subjects. Mosquitoes were prepared for trials in this manner: the head of the mosquito was excised and the base of the head was connected to the ground electrode. The tip of the distal segment of one antenna was cut and inserted it into the recording electrode. Only mosquitoes producing a steady baseline reading were used for trials. All readings were taken within 10 minutes of the time the mosquito was prepared and each female was tested only once with one full chemical series. Trials included human scent emanating from a sock (Tradition brand, nylon) previously conditioned through 30 minutes of vigorous exercise by a volunteer and incubated at 28° C. and 80% RH for 24 hours. […] For trials, the sock was cut into 0.5 cm×3 cm strips and put into the pipette dispensing the odor pulses. Odors in each run were presented to the mosquito in the following order with at least 25 seconds between odor pulses: no odor, no odor, 10 μg DEETTM, 10 μg chemical, no odor, no odor, human scent only, human scent with 1 μg chemical, human scent with 10 μg chemical, human scent with 100 μg chemical, human scent only, no odor, no odor, 10 μg DEETTM. Several of these pulses served as internal controls to ensure that the mosquito antenna was still responding to the stimuli, or the human odor was detectable to the mosquito. One of the pulses, such as air pulse, produced a response, but it is smaller than that of odor or of presented compounds, seven […]. The DEETTM pulses were included as a reference. The pulses of interest were those containing both the human odor and chemical of interest in various concentrations. 9 runs were completed for each chemical tested and recorded the amplitude of the peaks produced for each odor pulse. […] All data were analyzed in R version 2.15.0 (R Development Core Team, 2012). […] EAG activity values were analyzed using a generalized least squares ANOVA with a variance structure that accounts for measurements within runs being more similar than measurements between runs. […] Behavioural assay data was analyzed using a MANOVA with solvent type and chemical (including concentration) as factors. […]

In test [2] the test system is Anopheles gambiae. The test is described as follows: Behavioural olfactometer assay with human odor source protected by chemical and alternate plant (honey) odor source. It counts as in vivo. The note with it: for repelling efficacy, DEET vs 3c{3,6}: 0.1% solution; for total experiment time (time in the proximity of the human odor source) vs unprotected control / probe time (time on the human odor source) vs unprotected control / number of probe attempts at the human odor source vs unprotected control: 1% chemical on mesh over human odor, P<0.05; for total experiment time (time in the proximity of the human odor source) vs unprotected control: FIG. 5A; for probe time (time on the human odor source) vs unprotected control: FIG. 5B; for number of probe attempts at the human odor source vs unprotected control: FIG. 5C. On the procedure: The olfactometer procedure and materials used in this study are similar to those employed by Zappia and Roitberg (2012) Energy-state dependent responses of Anopheles gambiae (Diptera: Culicidae) to simulated bednet-protected hosts. J. Vector Ecol. 37 (1): 173-8, herein incorporated by reference in its entirety. The behavioral assay was conducted in a custom-made glass olfactometer tube (145 cm long, 17 cm diameter) (FIG. 2). A mosquito release chamber was located on one side of the tube and consisted of a small tube with a gate attached separating the mosquito from the experiment arena. A small sac (10 cm×3 cm in diameter) made of mesh (Onsight equipment insecticide free hiker's mosquito shelter) was positioned 60 cm from the end of the release chamber. The mesh sac was immersed in the treatment compound immediately before trials and allowed to dry before the trial began. The sac contained human odor in the form of a sock (Secret brand, nylon) conditioned through 30 minutes of strenuous exercise and incubated at 28° C. and 80% RH for 24 hours before use. This sock was tested to ensure it was attractive to mosquitoes at the beginning of each trial day (by placing it in a non-experimental colony cage and observing whether females in the cage would seek it out to probe at it) and replaced every 5 days. A breathing tube was also attached to the human odor/chemical complex that allowed a one-way flow of exhaled carbon dioxide into the arena through the sock to make the human odor more attractive to A. gambiae. Carbon dioxide was exhaled into this tube once every 15 seconds during trials. An odor-producing sugar source was located 73 cm from the human odor/chemical complex. This consisted of a cotton ball impregnated with approximately 5 g of honey (Kidd Bros, Alfalfa Clover). The ball was suspended on a metal stage from the top of the olfactometer tube. This gave the mosquito an alternative during trials from seeking the human odor source. At the opposite end of the tube from the release gate was an air source pumping a one-way source of carbon-filtered air into the olfactometer arena flowing from the sugar source to the human odor to the release gate at a rate of 0.025 L/s. The olfactometer was rinsed daily with acetone and water to minimize residual odors. A 2×5 factorial design was used with solvent type and chemical as factors. The solvent types tested were a 1:1 and 1:5 ratio of isopropyl alcohol to water. Two different solvent types were assessed to determine the lowest ratio of alcohol to water that would be effective, since a lower concentration of alcohol is both more cost effective and practical in the field. […] In addition, we tested DEET™ as a positive control compound. Two concentrations of DEET™ and 3c{3,6} (0.1% and 1%) and a control were assessed for each solvent consisting of the solvent without the active ingredient (0% concentration). Female A. gambiae (4-7 days old, not previously blood-fed, and without a visibly swollen abdomen, wing size 2.93 mm-3.49 mm) were starved for 24 hours before assays. All assays were run under dim red light (1.79 μmol photons/(s×m^2)) in the colony chamber 1-5 hours after darkness since this is the period in which blood-seeking behaviour in females is highest. Mosquitoes were allowed to acclimate in the release chamber for 3 minutes before trials began. After 3 minutes, the release gate was opened. […] When the mosquito entered the arena, timing began. During trials, the olfactometer design was such that the mosquito encountered the human odor/chemical first, followed by the sugar odor source. The experiment arena consisted of the area in the olfactometer that was placed in front of the plant odor source, relative to the release point of the mosquito. Trials ended when the mosquito landed anywhere in the arena and rested for 5 minutes or flew to the plant sugar source. […]

The test system of test [3] is olfactory receptor neurons on the maxillary palps of A. gambiae. The note with it: cited from earlier work.
In a further test the test system is Culex quinquefasciatus. To be noted: cited from earlier work.
A further test has as its system Aedes aegypti. To be noted: cited from earlier work.
In test [4] the test system is neurons in the sacculus on the antenna that express an ionotropic receptor (IR40a). The note with it: cited from earlier work.

“Also recorded” adds a separate entry of the source.

For `CCN(CC)C(=O)c1cccc(C)c1` [DEET™, N—N-diethyl-meta-toluamide], the “enhancement or inhibition of antennal responses to human scent” value with Anopheles gambiae [1] (compound + human scent) is reported as “did not affect the responses to the human scent”. The “antennal (olfactory) response to compound by itself” value in the test on Anopheles gambiae [1] (compound alone, EAG) is “responded; also recorded: elicited olfactory responses by itself”. Also, in the test on Anopheles gambiae [2], the “repelling efficacy, DEET vs 3c{3,6}” value is on record as “more effective at repelling A. gambiae individuals than a 0.1% solution of 3c{3,6}”; the “total experiment time (time in the proximity of the human odor source) vs unprotected control” value is “spent less time in the proximity of the human odor source”; the “probe time (time on the human odor source) vs unprotected control” value is on record as “spent less time on the human odor source”; the “number of probe attempts at the human odor source vs unprotected control” value was “attempted to probe less”. Besides, in test [3], the “inhibition of olfactory receptor neurons (decreased response to 1-octen-3-ol)” value is reported as “inhibits olfactory receptor neurons on the maxillary palps of A. gambiae”. Besides, in the test with Culex quinquefasciatus, the “direct detection of DEET” value is “detect DEET™ directly” and the “inhibition of neuron response to 1-octen-3-ol” value is “this inhibition was not detected”. In addition, in the test on Aedes aegypti, the “direct detection of DEET” value was “detect DEET™ directly” and the “inhibition of neuron response to 1-octen-3-ol” value is given as “this inhibition was not detected”. In addition, the “stimulation of IR40a-expressing sacculus neurons” value in test [4] was “stimulate neurons in the sacculus on the antenna of Drosophila melanogaster”.
For the compound `C=CCOc1ccc(OCCC)cc1` [3c{3,6}, 1-allyloxy-4-propoxybenzene], in the test with Anopheles gambiae [1] (100 μg dose, FIG. 6), the “depolarization response of compound by itself” value was “one of the largest depolarization responses by itself”. In the test with Anopheles gambiae [1] (FIG. 4, difference not significant (P>0.05)), the “air-corrected antennal depolarization, chemical alone (without the human odor)” value was “larger air-corrected antennal depolarization than the other compounds tested”. Further, in the test with Anopheles gambiae [1] (human scent with 1 μg, 10 μg, 100 μg chemical (pooled), FIG. 3), the “EAG activity: response to repellent/human odor source combination compared to DEET reference peak” value is reported as “largest activity of all the compounds tested”. In the test on Anopheles gambiae [2], the “repelling efficacy, DEET vs 3c{3,6}” value is recorded as “a 0.1% solution of DEET™ was more effective”; the “total experiment time (time in the proximity of the human odor source) vs unprotected control” value is reported as “spent less time in the proximity of the human odor source”; the “probe time (time on the human odor source) vs unprotected control” value is given as “spent less time on the human odor source”; the “number of probe attempts at the human odor source vs unprotected control” value was “attempted to probe less”. For the same compound, the “behavioural response compared with DEET” value in the test on Anopheles gambiae [2] (1% solution) is recorded as “comparable response in mosquitoes to a 1% solution of DEET™”. Besides, the “repellent efficacy against A. gambiae (overall conclusion)” value in the test with Anopheles gambiae [2] (in vivo) is recorded as “effective repellent for A. gambiae; also recorded: effective repellent against A. gambiae”.
